From patent US20140058103A1, “Inhibitors of PI3K-Delta and Methods of Their Use and Manufacture” (Exelixis, Inc., priority 2010, published 2014)

Target: PI3K delta (Homo sapiens, UniProt O00329)
Assay: Luciferase-coupled chemiluminescence kinase assay (ATP consumption, KinaseGlo)
Format: biochemical
Summary of the method: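 ATP consumption measured by KinaseGlo luciferase chemiluminescence after a 2 h reaction at ambient temperature, with ATP at or below the kinase KM. Ten inhibitor concentrations per curve; IC50 from four-parameter nonlinear regression.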

PI3K delta, sequence (O00329 whole entry): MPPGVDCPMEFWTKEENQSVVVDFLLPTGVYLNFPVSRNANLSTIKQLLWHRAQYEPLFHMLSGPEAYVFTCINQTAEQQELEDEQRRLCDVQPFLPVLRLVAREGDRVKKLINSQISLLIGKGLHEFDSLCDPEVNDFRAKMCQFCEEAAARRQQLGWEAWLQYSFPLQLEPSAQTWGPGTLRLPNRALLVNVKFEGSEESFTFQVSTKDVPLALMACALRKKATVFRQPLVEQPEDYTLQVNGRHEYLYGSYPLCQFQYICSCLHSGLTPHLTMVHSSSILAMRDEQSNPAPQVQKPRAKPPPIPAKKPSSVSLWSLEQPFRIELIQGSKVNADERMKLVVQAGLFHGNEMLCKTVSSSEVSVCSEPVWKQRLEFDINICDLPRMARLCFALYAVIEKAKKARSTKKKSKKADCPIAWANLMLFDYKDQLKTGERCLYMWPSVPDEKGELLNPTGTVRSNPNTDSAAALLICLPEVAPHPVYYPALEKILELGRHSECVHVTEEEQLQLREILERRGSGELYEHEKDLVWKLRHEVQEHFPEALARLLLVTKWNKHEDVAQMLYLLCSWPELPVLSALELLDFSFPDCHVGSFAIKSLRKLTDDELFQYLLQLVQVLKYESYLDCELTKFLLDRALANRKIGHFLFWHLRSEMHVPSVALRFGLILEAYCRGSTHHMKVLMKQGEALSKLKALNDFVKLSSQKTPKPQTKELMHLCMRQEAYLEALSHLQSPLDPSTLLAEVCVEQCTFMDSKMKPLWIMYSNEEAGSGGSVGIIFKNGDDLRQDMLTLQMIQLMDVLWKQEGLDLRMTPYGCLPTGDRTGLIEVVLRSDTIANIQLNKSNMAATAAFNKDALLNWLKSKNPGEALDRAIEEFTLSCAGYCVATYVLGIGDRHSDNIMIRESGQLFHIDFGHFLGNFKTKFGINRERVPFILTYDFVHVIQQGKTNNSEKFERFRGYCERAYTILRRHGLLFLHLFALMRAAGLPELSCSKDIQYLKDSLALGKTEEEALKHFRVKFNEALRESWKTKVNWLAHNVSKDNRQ
PI3K delta, sequence (P27986 whole entry partner): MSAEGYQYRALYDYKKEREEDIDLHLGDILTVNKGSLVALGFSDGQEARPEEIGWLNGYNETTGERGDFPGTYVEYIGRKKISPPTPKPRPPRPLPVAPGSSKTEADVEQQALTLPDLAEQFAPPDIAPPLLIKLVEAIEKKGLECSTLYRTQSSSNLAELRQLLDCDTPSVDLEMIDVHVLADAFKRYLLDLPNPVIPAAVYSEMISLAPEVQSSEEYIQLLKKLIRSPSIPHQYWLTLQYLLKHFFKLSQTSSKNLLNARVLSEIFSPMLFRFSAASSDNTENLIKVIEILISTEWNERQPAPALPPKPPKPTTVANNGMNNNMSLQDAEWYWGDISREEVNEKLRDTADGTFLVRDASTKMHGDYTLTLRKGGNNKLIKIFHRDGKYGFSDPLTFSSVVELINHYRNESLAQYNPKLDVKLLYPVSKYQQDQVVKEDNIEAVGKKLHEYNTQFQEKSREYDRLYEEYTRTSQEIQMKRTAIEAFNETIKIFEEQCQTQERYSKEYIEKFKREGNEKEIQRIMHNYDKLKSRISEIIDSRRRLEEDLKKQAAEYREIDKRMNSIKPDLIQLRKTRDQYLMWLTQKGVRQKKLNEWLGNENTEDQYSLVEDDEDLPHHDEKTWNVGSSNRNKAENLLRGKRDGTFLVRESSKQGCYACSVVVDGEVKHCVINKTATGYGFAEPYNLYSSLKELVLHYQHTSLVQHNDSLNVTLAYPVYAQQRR

Row | IC50 | Structure (SMILES)
1 | < 50 nM | CCn1c(-c2cnc(C)nc2)nc2c(N3CCC(n4c(=O)[nH]c5ccccc54)CC3)ncnc21 [Compound 342, 1-{1-[9-ethyl-8-(2-methylpyrimidin-5-yl)-9H-purin-6-yl]piperidin-4-yl}-1,3-dihydro-2H-benzimidazol-2-one]
2 | < 50 nM | Cn1c(-c2ccc(N)nc2)nc2c(N3CCC(n4c(=O)[nH]c5ncccc54)CC3)ncnc21 [Compound 343, 1-{1-[8-(6-aminopyridin-3-yl)-9-methyl-9H-purin-6-yl]piperidin-4-yl}-1,3-dihydro-2H-imidazo[4,5-b]pyridin-2-one]
3 | < 50 nM | CCn1cc(-c2nc3c(N4CCC(n5c(=O)[nH]c6c(F)cccc65)CC4)ncnc3n2C)cn1 [Compound 344, 1-{1-[8-(1-ethyl-1H-pyrazol-4-yl)-9-methyl-9H-purin-6-yl]piperidin-4-yl}-4-fluoro-1,3-dihydro-2H-benzimidazol-2-one]
4 | < 50 nM | CCn1ncc(-c2nc3c(N4CCC(n5c(=O)[nH]c6c(F)cccc65)CC4)ncnc3n2C)c1C [Compound 345, 1-{1-[8-(1-ethyl-5-methyl-1H-pyrazol-4-yl)-9-methyl-9H-purin-6-yl]piperidin-4-yl}-4-fluoro-1,3-dihydro-2H-benzimidazol-2-one]
5 | 250 to 500 nM | Cn1cc(-c2nc3c(N4CC[C@H](c5ccccc5)[C@@H](O)C4)ncnc3n2C)cn1 [Compound 346, (3R,4R)-1-[9-methyl-8-(1-methyl-1H-pyrazol-4-yl)-9H-purin-6-yl]-4-phenylpiperidin-3-ol]
6 | 500 to 1500 nM | Cn1cc(-c2nc3c(N4CC[C@@H](n5c(=O)[nH]c6ccccc65)[C@H](C(=O)O)C4)ncnc3n2C)cn1 [Compound 347, (3R,4R)-1-[9-methyl-8-(1-methyl-1H-pyrazol-4-yl)-9H-purin-6-yl]-4-(2-oxo-2,3-dihydro-1H-benzimidazol-1-yl)piperidine-3-carboxylic acid]
7 | 50 to 250 nM | Cn1cc(-c2nc3c(N4CCN(C5=NS(=O)(=O)c6ccccc65)CC4)ncnc3n2C)cn1 [Compound 348, 6-[4-(1,1-dioxido-1,2-benzisothiazol-3-yl)piperazin-1-yl]-9-methyl-8-(1-methyl-1H-pyrazol-4-yl)-9H-purine]
8 | 50 to 250 nM | CCn1cc(-c2nc3c(N4CCN(C5=NS(=O)(=O)c6ccccc65)CC4)ncnc3n2C)cn1 [Compound 349, 6-[4-(1,1-dioxido-1,2-benzisothiazol-3-yl)piperazin-1-yl]-8-(1-ethyl-1H-pyrazol-4-yl)-9-methyl-9H-purine]
9 | 500 to 1500 nM | Cn1cc(-c2nc3c(N4CCN(c5ccccc5S(C)(=O)=O)CC4)ncnc3n2C)cn1 [Compound 350, 9-methyl-8-(1-methyl-1H-pyrazol-4-yl)-6-{4-[2-(methylsulfonyl)phenyl]piper-azin-1-yl}-9H-purine]
10 | 250 to 500 nM | Cn1cc(-c2nc3c(N4CCC(c5c[nH]c6ccccc56)CC4)ncnc3n2C)cn1 [Compound 351, 6-[4-(1H-indol-3-yl)piperidin-1-yl]-9-methyl-8-(1-methyl-1H-pyrazol-4-yl)-9H-purine]
11 | < 50 nM | CNc1ccc(-c2nc3c(N4CCC(n5c(=O)[nH]c6ccccc65)CC4)ncnc3n2C)cn1 [Compound 353, 1-(1-{9-methyl-8-[6-(methylamino)pyridin-3-yl]-9H-purin-6-yl}piperidin-4-yl)-1,3-dihydro-2H-benzimidazol-2-one]
12 | < 50 nM | CNc1ccc(-c2nc3c(N4CCC(n5c(=O)[nH]c6ncccc65)CC4)ncnc3n2C)cn1 [Compound 354, 1-(1-{9-methyl-8-[6-(methylamino)pyridin-3-yl]-9H-purin-6-yl}piperidin-4-yl)-1,3-dihydro-2H-imidazo[4,5-b]pyridin-2-one]
13 | 250 to 500 nM | Cn1cc(-c2nc3c(N4CCN(S(=O)(=O)c5ccccc5)CC4)ncnc3n2C)cn1 [Compound 355, 9-methyl-8-(1-methyl-1H-pyrazol-4-yl)-6-[4-(phenylsulfonyl)piperazin-1-yl]-9H-purine]
14 | 500 to 1500 nM | Cn1cc(-c2nc3c(N4CCN(c5cccc(OCC(=O)NC6CCCC6)c5)CC4)ncnc3n2C)cn1 [Compound 356, N-cyclopentyl-2-[(3-{4-[9-methyl-8-(1-methyl-1H-pyrazol-4-yl)-9H-purin-6-yl]piperazin-1-yl}phenyl)oxy]acetamide]
15 | 500 to 1500 nM | Cn1cc(-c2nc3c(N4CCN(c5cccc(OCC(=O)N6CCCCC6)c5)CC4)ncnc3n2C)cn1 [Compound 357, 9-methyl-8-(1-methyl-1H-pyrazol-4-yl)-6-(4-{3-[(2-oxo-2-piperidin-1-ylethyl)oxy]phenyl}piperazin-1-yl)-9H-purine]
16 | 500 to 1500 nM | Cn1cc(-c2nc3c(N4CCN(c5cccc(OCC(=O)NC6CCCCC6)c5)CC4)ncnc3n2C)cn1 [Compound 358, N-cyclohexyl-2-[(3-{4-[9-methyl-8-(1-methyl-1H-pyrazol-4-yl)-9H-purin-6-yl]piperazin-1-yl}phenyl)oxy]acetamide]
17 | 250 to 500 nM | Cn1cc(-c2nc3c(N4CCN(c5cccc(OCC(=O)N6CCCCCC6)c5)CC4)ncnc3n2C)cn1 [Compound 359, 6-(4-{3-[(2-azepan-1-yl-2-oxoethyl)oxy]phenyl}piperazin-1-yl)-9-methyl-8-(1-methyl-1H-pyrazol-4-yl)-9H-purine]

Row | IC50 | Structure (SMILES)
18 | 500 to 1500 nM | Cn1cc(-c2nc3c(N4CCN(c5ccc(OCc6ccc7ccccc7n6)cc5)CC4)ncnc3n2C)cn1 [Compound 361, 2-{[(4-(4-[9-methyl-8-(1-methyl-1H-pyrazol-4-yl)-9H-purin-6-yl]piperazin-1-yl}phenyl)oxy]methyl)-quinoline]
19 | 500 to 1500 nM | Cn1cc(-c2nc3c(N4CCN(c5ccccc5CNC(=O)C5CC5)CC4)ncnc3n2C)cn1 [Compound 362, N-[(2-{4-[9-methyl-8-(1-methyl-1H-pyrazol-4-yl)-9H-purin-6-yl]piperazin-1-yl)phenyl)methyl]cyclopropane-carboxamide]
20 | 250 to 500 nM | Cc1cccc(C(=O)NCc2ccccc2N2CCN(c3ncnc4c3nc(-c3cnn(C)c3)n4C)CC2)c1 [Compound 363, 3-methyl-N-[(2-{4-[9-methyl-8-(1-methyl-1H-pyrazol-4-yl)-9H-purin-6-yl]piperazin-1-yl}phenyl)methyl]benzamide]
21 | 500 to 1500 nM | Cn1cc(-c2nc3c(N4CCN(c5ccccc5CNS(=O)(=O)c5ccc6ccccc6c5)CC4)ncnc3n2C)cn1 [Compound 364, N-[(2-{4-[9-methyl-8-(1-methyl-1H-pyrazol-4-yl)-9H-purin-6-yl]piperazin-1-yl}phenyl)methyl]naphthalene-2-sulfonamide]
22 | < 50 nM | CN(C)c1ccc(-c2nc3c(N4CCC(n5c(=O)[nH]c6ncccc65)CC4)ncnc3n2C)cn1 [Compound 365, 1-(1-{8-[6-(dimethylamino)pyridin-3-yl]-9-methyl-9H-purin-6-yl}piperidin-4-yl)-1,3-dihydro-2H-imidazo[4,5-b]pyridin-2-one]
23 | 250 to 500 nM | CCn1cc(-c2nc3c(N4CCC(c5c[nH]c6ccccc56)CC4)ncnc3n2C)cn1 [Compound 366, 8-(1-ethyl-1H-pyrazol-4-yl)-6-[4-(1H-indol-3-yl)piperidin-1-yl]-9-methyl-9H-purine]
24 | 50 to 250 nM | CCn1cc(-c2nc3c(N4CCN(S(=O)(=O)c5ccccc5)CC4)ncnc3n2C)cn1 [Compound 367, 8-(1-ethyl-1H-pyrazol-4-yl)-9-methyl-6-[4-(phenylsulfonyl)piperazin-1-yl]-9H-purine]
25 | 500 to 1500 nM | CCn1cc(-c2nc3c(N4CCN(c5ccccc5)CC4)ncnc3n2C)cn1 [Compound 368, 8-(1-ethyl-1H-pyrazol-4-yl)-9-methyl-6-(4-phenylpiperazin-1-yl)-9H-purine]
26 | 500 to 1500 nM | Cc1ccc(S(=O)(=O)N2CCN(c3ncnc4c3nc(-c3cnn(C)c3)n4C)CC2)cc1 [Compound 370, 9-methyl-6-{4-[(4-methylphenyl)sulfonyl]-piperazin-1-yl)-8-(1-methyl-1H-pyrazol-4-yl)-9H-purine]
27 | 250 to 500 nM | Cn1cc(-c2nc3c(N4CCN(S(=O)(=O)Cc5ccccc5)CC4)ncnc3n2C)cn1 [Compound 371, 9-methyl-8-(1-methyl-1H-pyrazol-4-yl)-6-{4-[(phenylmethyl)sulfonyl]piperazin-1-yl)-9H-purine]
28 | 500 to 1500 nM | Cn1cc(-c2nc3c(N4CCN(S(=O)(=O)c5ccc(F)cc5)CC4)ncnc3n2C)cn1 [Compound 372, 6-{4-[(4-fluorophenyl)sulfonyl]piperazin-1-yl}-9-methyl-8-(1-methyl-1H-pyrazol-4-yl)-9H-purine]
29 | 500 to 1500 nM | Cn1cc(-c2nc3c(N4CCN(S(=O)(=O)c5ccc(Cl)cc5)CC4)ncnc3n2C)cn1 [Compound 374, 6-{4-[(4-chlorophenyl)sulfonyl]piperazin-1-yl)-9-methyl-8-(1-methyl-1H-pyrazol-4-yl)-9H-purine]
30 | 250 to 500 nM | Cn1cc(-c2nc3c(N4CCN(S(=O)(=O)c5ccccc5Cl)CC4)ncnc3n2C)cn1 [Compound 375, 6-{4-[(2-chlorophenyl)sulfonyl]piperazin-1-yl}-9-methyl-8-(1-methyl-1H-pyrazol-4-yl)-9H-purine]
31 | 250 to 500 nM | COc1ccc(OC)c(S(=O)(=O)N2CCN(c3ncnc4c3nc(-c3cnn(C)c3)n4C)CC2)c1 [Compound 376, 6-(4-([2,5-bis(methyloxy)phenyl]sulfonyl}-piperazin-1-yl)-9-methyl-8-(1-methyl-1H-pyrazol-4-yl)-9H-purine]
32 | 250 to 500 nM | Cn1cc(-c2nc3c(N4CCN(S(=O)(=O)c5cccc(C(F)(F)F)c5)CC4)ncnc3n2C)cn1 [Compound 377, 9-methyl-8-(1-methyl-1H-pyrazol-4-yl)-6-(4-{[3-(trifluoromethyl)phenyl]sulfonyl}-piperazin-1-yl)-9H-purine]
33 | 50 to 250 nM | Cn1cc(-c2nc3c(N4CCN(S(=O)(=O)c5ccccc5C(F)(F)F)CC4)ncnc3n2C)cn1 [Compound 378]
34 | 50 to 250 nM | Cn1cc(-c2nc3c(N4CCN(S(=O)(=O)c5cc(Cl)ccc5Cl)CC4)ncnc3n2C)cn1 [Compound 379, 6-{4-[(2,5-dichlorophenyl)sulfonyl]piperazin-1-yl)-9-methyl-8-(1-methyl-1H-pyrazol-4-yl)-9H-purine]

Row | Structure (SMILES) | IC50
35 | Cn1cc(-c2nc3c(N4CCN(c5ccc(OCC6CC6)cc5)CC4)ncnc3n2C)cn1 [Compound 360] | 500 to 1500 nM
